Results taken from publication PMC8226449, “In Vitro Evaluation of the Squaramide-Conjugated Fibroblast Activation Protein Inhibitor-Based Agents AAZTA^5.SA.FAPi and DOTA.SA.FAPi” (Molecules, 2021).
Where two headings read alike, the source gives them in different places. Each block holds one compound with its values, some of them ahead of it.

Tests used:
DPPs (DPP4 and DPP9) = experiment: Counter-screening against DPP4 and DPP9 (Ala-Pro-pNA substrate); format: biochemical, human; details: screened at 10 µM and 1 µM, reported as >1 µM if remaining activity more than 50% at 1 µM, n = 2
Method: (§1) Enzymes: Recombinant human FAP and PREP were expressed and purified as published. Recombinant human dipeptidyl 9 (DPP9) was purified as described by De Decker et al.. Human dipeptidyl peptidase 4 was purified from seminal plasma as published.
(§2) IC50 measurements and counter-screening: IC50-measurements of the probes for FAP and PREP were carried out as published, using, respectively, Z-Gly-Pro-AMC and Suc-Gly-Pro-AMC as the substrate. IC50 experiments were repeated in triplicate, and the results are presented as mean ± standard deviation. Methods and data fitting were performed as published earlier. Screening against DPP4 and DPP9 was performed at final probe concentrations of 10 µM and 1 µM using Ala-Pro-paranitroanilide (pNA) as the substrate at the respective final concentrations of 25 μM (DPP4) and 150 μM (DPP9) at pH 7.4 (0.05 M HEPES-NaOH buffer with 0.1% Tween-20, 0.1 mg/mL BSA, and 150 mM NaCl). Probes were pre-incubated with the respective enzyme for 15 min at 37 °C; afterwards, the substrate was added, and the velocities of pNA release were measured kinetically at 405 nm for at least 10 min at 37 °C. Measurements were executed using the Infinite 200 (Tecan Group Ltd., Mennendorf, Switzerland), and the Magellan software was used to process the data.

Recombinant human FAP [1] = target: T1, Recombinant human FAP (Homo sapiens, UniProt Q12884); experiment: FAP inhibition assay (IC50, Z-Gly-Pro-AMC substrate); format: biochemical; details: for IC50: mean with standard deviation, n = 3; for Selectivitiy Index (FAP/PREP): ratio of PREP IC50 and FAP IC50
T1 construct: made in house
T1 sequence (Q12884 1-760): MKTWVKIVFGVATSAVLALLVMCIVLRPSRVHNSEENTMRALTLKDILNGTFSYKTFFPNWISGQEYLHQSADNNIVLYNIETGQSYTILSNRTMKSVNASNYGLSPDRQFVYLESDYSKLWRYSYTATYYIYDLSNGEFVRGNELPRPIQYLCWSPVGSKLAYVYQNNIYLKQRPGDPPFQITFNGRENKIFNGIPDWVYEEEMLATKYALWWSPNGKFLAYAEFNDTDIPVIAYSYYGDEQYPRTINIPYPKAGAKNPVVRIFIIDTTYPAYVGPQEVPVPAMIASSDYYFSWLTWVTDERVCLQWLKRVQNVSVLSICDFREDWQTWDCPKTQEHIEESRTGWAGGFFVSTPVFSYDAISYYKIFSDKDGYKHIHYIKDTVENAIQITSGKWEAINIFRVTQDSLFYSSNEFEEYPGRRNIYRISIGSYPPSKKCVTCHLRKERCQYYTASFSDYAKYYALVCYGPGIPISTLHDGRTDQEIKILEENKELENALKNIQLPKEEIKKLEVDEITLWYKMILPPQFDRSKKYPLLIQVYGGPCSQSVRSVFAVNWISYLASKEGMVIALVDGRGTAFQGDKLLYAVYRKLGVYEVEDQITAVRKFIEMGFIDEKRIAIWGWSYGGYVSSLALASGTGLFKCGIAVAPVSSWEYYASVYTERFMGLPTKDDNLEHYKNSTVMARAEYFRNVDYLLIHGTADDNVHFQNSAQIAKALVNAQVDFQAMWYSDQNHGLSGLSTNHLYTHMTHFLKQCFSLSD
Method: as §1, §2

Recombinant human PREP [2] = target: T2, Recombinant human PREP (Homo sapiens, UniProt P48147); experiment: PREP inhibition assay (IC50, Suc-Gly-Pro-AMC substrate); format: biochemical; details: mean with standard deviation, n = 3
T2 construct: made in house
T2 sequence (P48147 1-710): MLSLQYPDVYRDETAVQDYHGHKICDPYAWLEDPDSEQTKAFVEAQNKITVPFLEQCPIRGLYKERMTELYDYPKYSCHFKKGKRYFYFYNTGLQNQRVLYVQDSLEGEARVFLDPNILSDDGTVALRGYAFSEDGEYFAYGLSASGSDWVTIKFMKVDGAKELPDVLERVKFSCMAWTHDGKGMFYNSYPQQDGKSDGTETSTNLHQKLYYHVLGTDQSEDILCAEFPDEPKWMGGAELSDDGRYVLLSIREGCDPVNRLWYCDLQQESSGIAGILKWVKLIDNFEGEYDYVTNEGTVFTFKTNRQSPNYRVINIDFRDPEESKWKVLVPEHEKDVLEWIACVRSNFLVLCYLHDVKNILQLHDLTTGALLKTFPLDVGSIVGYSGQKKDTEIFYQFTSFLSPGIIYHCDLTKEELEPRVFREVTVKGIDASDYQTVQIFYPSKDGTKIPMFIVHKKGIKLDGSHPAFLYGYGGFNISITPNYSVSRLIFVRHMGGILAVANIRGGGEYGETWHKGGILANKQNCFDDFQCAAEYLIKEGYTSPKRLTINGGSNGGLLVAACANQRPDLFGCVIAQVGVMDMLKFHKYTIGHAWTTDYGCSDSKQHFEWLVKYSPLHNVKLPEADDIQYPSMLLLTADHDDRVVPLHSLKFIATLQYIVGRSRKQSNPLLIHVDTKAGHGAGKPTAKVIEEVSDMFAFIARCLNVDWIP
Method: as §1, §2

Recombinant human FAP [3] = target: T1, Recombinant human FAP; parameters: method as in Moon et al. [24]; details: mean with standard deviation; ref Moon et al. [24]; cited from earlier work
Recombinant human PREP [4] = target: T2, Recombinant human PREP; details: mean with standard deviation; ref Moon et al. [24]; cited from earlier work
[5] = Stability of radiolabelled complexes in PBS, saline (NaCl) and ethanol; format: physicochemical; details: 37 °C; for intact conjugate (stability): PBS and NaCl
Method: (§3) Labeling was carried out with 100–150 MBq gallium-68 in 300 µL of 1 M ammonium acetate (AmAc) buffer pH 5.5 and with 30–40 MBq scandium-44 in 1 mL of 0.25 M AmAc pH 4.0, and aliquots were taken at 1, 3, 5, 10, and 15 min. For lutetium-177, activity of 30–40 MBq in 300 µL of 1 M AmAc pH 5.5 was used, and aliquots were taken at 1, 3, 5, 15, 30, and 60 min. Stability was tested in 500 µL of human serum, phosphate-buffered saline, ethanol, and saline (0.9% isotonic NaCl solution) using ~5 MBq of tracer solution with >95% radiochemical purity. […] HS (human male AB plasma, USA origin) and PBS were purchased from Sigma Aldrich, and 0.9% saline from B. Braun Melsungen AG (Melsungen, Germany).

[6] = Lipophilicity (logD) by shake-flask method; format: physicochemical; details: pH = 7.4, 1-octanol/PBS
Method: Lipophilicity (logD value) was determined via the “shake-flask” method. For both precursors AAZTA^5.SA.FAPi and DOTA.SA.FAPi logD (pH = 7.4), values were measured for the ^68Ga- and ^44Sc complexes.
Lipophilicity of [^68Ga]Ga-AAZTA^5.SA.FAPi, [^44Sc]Sc-AAZTA^5.SA.FAPi and [^68Ga]Ga-DOTA.SA.FAPi was determined using the “shake-flask” methodology. After reaction of the precursor with the respective radionuclide, the reaction solution was adjusted to pH 7.4 with NaOH. Aliquots of ~5 MBq for the ^68Ga complexes and of ~3 MBq for the ^44Sc-complexed were taken and adjusted to a total volume of 700 μL with PBS (n= 4). 700 μL 1-octanol was added, and the solution was shaken for 2 min (1500 rpm). Afterwards, each tube was centrifuged for 2 min. 400 μL of the octanol- and PBS phases were pipetted in new tubes, and aliquots of each phase (3 µL of the PBS phase and 6 μL of the octanol phase) were measured via radio-TLC. The PBS phases were adjusted to 700 µL, and 700 μL octanol was added to each tube. The procedure was repeated twice. LogD values were calculated as the logarithm of the octanol/PBS ratio.

[7] = Stability of radiolabelled complexes in human serum; format: in vitro ADME; details: human serum (HS), 37 °C
Method: as §3

IC50 (Recombinant human FAP [1]): 0.00056 ± 2e-05 µM
Selectivitiy Index (FAP/PREP) (Recombinant human FAP [1]): 4286
IC50 (Recombinant human PREP [2]): 2.4 ± 0.4 µM
SMILES: N#C[C@@H]1CC(F)(F)CN1C(=O)CNC(=O)c1ccnc2ccc(OCCCCNc3c(NCCNC(=O)CCCCC4(N(CC(=O)O)CC(=O)O)CN(CC(=O)O)CCN(CC(=O)O)C4)c(=O)c3=O)cc12 [AAZTA^5.SA.FAPi]
IC50 (DPPs (DPP4 and DPP9)): > 1 µM

Selectivitiy Index (FAP/PREP) (Recombinant human FAP [1]): 2113
SMILES: CN(CC(=O)O)C1(CCCCC(=O)NCCNc2c(NCCCCOc3ccc4nccc(C(=O)NCC(=O)N5CC(F)(F)C[C@H]5C#N)c4c3)c(=O)c2=O)CN(CC(=O)O)CCN(CC(=O)O)C1 [DATA^5m.SA.FAPi, reference compound]
IC50 (Recombinant human FAP [3]): 0.0008 ± 0.0002 µM
IC50 (Recombinant human PREP [4]): 1.7 ± 0.1 µM

intact conjugate (stability) ([5]; 8 h): > 97%
intact conjugate (stability) ([7]; 8 h): > 97%
SMILES: N#C[C@@H]1CC(F)(F)CN1C(=O)CNC(=O)c1ccnc2ccc(OCCCCNc3c(NCCNC(=O)CN4CCN(CC(=O)[O-])CCN(CC(=O)[O-])CCN(CC(=O)[O-])CC4)c(=O)c3=O)cc12.[44Sc+3] [[^44Sc]Sc-DOTA.SA.FAPi]

intact conjugate (stability) ([5]; 3 d): > 98%
intact conjugate (stability) ([5]; 10 days): > 93%
intact conjugate (stability) ([7]; 10 days): > 99%
SMILES: N#C[C@@H]1CC(F)(F)CN1C(=O)CNC(=O)c1ccnc2ccc(OCCCCNc3c(NCCNC(=O)CN4CCN(CC(=O)[O-])CCN(CC(=O)[O-])CCN(CC(=O)[O-])CC4)c(=O)c3=O)cc12.[177Lu+3] [[^177Lu]Lu-DOTA.SA.FAPi]

Selectivitiy Index (FAP/PREP) (Recombinant human FAP [1]): 6214
SMILES: N#C[C@@H]1CC(F)(F)CN1C(=O)CNC(=O)c1ccnc2ccc(OCCCCNc3c(NCCNC(=O)CN4CCN(CC(=O)[O-])CCN(CC(=O)[O-])CCN(CC(=O)[O-])CC4)c(=O)c3=O)cc12.[Ga+3] [[^natGa]Ga-DOTA.SA.FAPi]
IC50 (Recombinant human FAP [3]): 0.0014 ± 0.0002 µM
IC50 (DPPs (DPP4 and DPP9)): > 1 µM
IC50 (Recombinant human PREP [4]): 8.7 ± 0.9 µM

IC50 (Recombinant human FAP [1]): 0.00057 ± 4e-05 µM
Selectivitiy Index (FAP/PREP) (Recombinant human FAP [1]): 6316
IC50 (Recombinant human PREP [2]): 3.6 ± 0.8 µM
SMILES: N#C[C@@H]1CC(F)(F)CN1C(=O)CNC(=O)c1ccnc2ccc(OCCCCNc3c(NCCNC(=O)CCCCC4(N(CC(=O)[O-])CC(=O)[O-])CN(CC(=O)[O-])CCN(CC(=O)[O-])C4)c(=O)c3=O)cc12.[Sc+3] [[^natSc]Sc-AAZTA^5.SA.FAPi]
IC50 (DPPs (DPP4 and DPP9)): > 1 µM

Further lines, the compound ahead of its results:

SMILES: N#C[C@@H]1CC(F)(F)CN1C(=O)CNC(=O)c1ccnc2ccccc12 [UAMC1110-FAP inhibitor, reference compound]
IC50 (DPPs (DPP4 and DPP9)): > 10 µM

SMILES: N#C[C@@H]1CC(F)(F)CN1C(=O)CNC(=O)c1ccnc2ccc(OCCCCNc3c(NCCNC(=O)CCCCC4(N(CC(=O)[O-])CC(=O)[O-])CN(CC(=O)[O-])CCN(CC(=O)[O-])C4)c(=O)c3=O)cc12.[44Sc+3] [[^44Sc]Sc-AAZTA^5.SA.FAPi]
intact conjugate (stability) ([5]; 1 h): > 99%
intact conjugate (stability) ([5]; 8 h): > 99%
LogD7.4 [6]: −2.50 ± 0.11
intact conjugate (stability) ([7]; 1 h): > 99%
intact conjugate (stability) ([7]; 8 h): > 97%

SMILES: N#C[C@@H]1CC(F)(F)CN1C(=O)CNC(=O)c1ccnc2ccc(OCCCCNc3c(NCCNC(=O)CCCCC4(N(CC(=O)[O-])CC(=O)[O-])CN(CC(=O)[O-])CCN(CC(=O)[O-])C4)c(=O)c3=O)cc12.[68Ga+3] [[^68Ga]Ga-AAZTA^5.SA.FAPi]
intact complexes (stability) ([5]; ethanol (EtOH) and saline (NaCl), over 2 h): > 99.9%
LogD7.4 [6]: −2.53 ± 0.13
intact complexes (stability) ([7]; over 2 h): > 99.9%

SMILES: N#C[C@@H]1CC(F)(F)CN1C(=O)CNC(=O)c1ccnc2ccc(OCCCCNc3c(NCCNC(=O)CCCCC4(N(CC(=O)[O-])CC(=O)[O-])CN(CC(=O)[O-])CCN(CC(=O)[O-])C4)c(=O)c3=O)cc12.[177Lu+3] [[^177Lu]Lu-AAZTA^5.SA.FAPi]
intact conjugate (stability) ([5]; 2 d): > 99%
intact conjugate (stability) ([5]; 3 d): > 98%
intact conjugate (stability) ([5]; 10 days): > 95%
intact conjugate (stability) ([7]; 1 h): > 99%
intact conjugate (stability) ([7]; 3 h): > 98%
intact conjugate (stability) ([7]; 1 d): > 83%
intact conjugate (stability) ([7]; 2 d): > 64%
intact conjugate (stability) ([7]; 3 d): > 55%

SMILES: N#C[C@@H]1CC(F)(F)CN1C(=O)CNC(=O)c1ccnc2ccc(OCCCCNc3c(NCCNC(=O)CN4CCN(CC(=O)[O-])CCN(CC(=O)[O-])CCN(CC(=O)[O-])CC4)c(=O)c3=O)cc12.[Lu+3] [[^natLu]Lu DOTA.SA.FAPi]
IC50 (Recombinant human FAP [3]): 0.0008 ± 0.0002 µM
IC50 (DPPs (DPP4 and DPP9)): > 1 µM
Selectivitiy Index (FAP/PREP) (Recombinant human FAP [1]): 3125
IC50 (Recombinant human PREP [4]): 2.5 ± 0.4 µM

SMILES: N#C[C@@H]1CC(F)(F)CN1C(=O)CNC(=O)c1ccnc2ccc(OCCCCNc3c(NCCNC(=O)CCCCC4(N(CC(=O)[O-])CC(=O)[O-])CN(CC(=O)[O-])CCN(CC(=O)[O-])C4)c(=O)c3=O)cc12.[Lu+3] [[^natLu]Lu-AAZTA^5.SA.FAPi]
IC50 (DPPs (DPP4 and DPP9)): > 1 µM
IC50 (Recombinant human FAP [1]): 0.00055 ± 4e-05 µM
Selectivitiy Index (FAP/PREP) (Recombinant human FAP [1]): 5818
IC50 (Recombinant human PREP [2]): 3.2 ± 0.6 µM
